For test [1], the system named is MDA-MB-468 cells. The test is described as follows: ER stress / UPR marker immunoblots. The class given is cell-based, human. The conditions noted are these: for EC50: mean of two determinations. As to the method:
Cells were lysed and proteins extracted in a modified RIPA buffer (25 mM Tris-HCl pH 7.6, 150 mM NaCl, 1% NP-40, 1% sodium deoxycholate and 0.1% SDS) supplemented with 10% glycerol (volume/volume), complete protease inhibitor cocktail (Roche), and Halt phosphatase inhibitor cocktail (Pierce). Approximately 10-20 μg of detergent soluble protein were resolved on NOVEX 10-20% polyacrylamide Tris-glycine gels (InVitrogen). Immunoblots were performed in a 20 mM Tris-buffered 137 mM saline solution (pH 7.6) containing 0.1% Tween-20 (polyoxyethylene (20) sorbitan monolaurate) and 5% (weight/volume) blotting grade non-fat dry milk (BioRad). The Lumigen PS-3 enhanced chemiluminescence kit (GE Healthcare) was used to reveal immunoblotted proteins.
Whether Sigma antagonists immediately induce autophagy or whether it is activated downstream of other cellular events was next examined. As Sigma1 is highly enriched in the ER, next examined was whether antagonist treatment could induce ER stress mediated UPR. Components of the IRE1α-JNK1/2 and eIF2α-ATF4 branches of the UPR as well as the UPR-associated ER chaperone, GRP78/BiP, were assayed as indicators of activated UPR.
All of the above-mentioned markers of ER stress were evaluated following treatment with increasing doses of Sigma ligands in order to compare UPR with the dose-responsive activation of autophagy. Sigma1 antagonist, IPAG, activated the UPR in a dose-responsive manner (FIG. 6).

Test [2] relates to MDA-MB-468 cells. Briefly: Cell death by trypan blue exclusion. The class given is cell-based, human. As to the method: Trypan blue exclusion and propidium iodide staining were used to quantify general cell death and the presence of apoptotic cell death was confirmed by immunoblot. The percentage of dead cells in a given population was determined by quantifying the number of trypan blue positive (dead) cells and dividing by the total number of trypan blue positive and negative cells.

Test [3] has as its system MDA-MB-468 cells. Briefly: SubG1 population by flow cytometry. The class given is cell-based, human. The conditions noted are these: 10 μM, 48 h. How it is done: FIG. 29 illustrates the time-course of a Sigma1 antagonist inducing apoptotic cell death of breast adenocarcinoma cells. Treatment with Sigma1 antagonist, IPAG, induces apoptotic cell death of MDA-MB-468 cells, as indicated by the percentage of subG1 phase cells. […] The far left panel represents cells treated or 24 hours with DMSO (vehicle control).
FIG. 37, comprising FIGS. 37A-37D, illustrates that inhibition of autophagy accelerates and/or potentiates Sigma1 antagonist induced apoptosis. FIG. 37A is a graph illustrating the time-course of Sigma antagonist-induced cell death as measured by flow cytometry. MDA-MB-468 cells were treated with DMSO (control), 10 μM IPAG (antagonist), or 10 μM PRE084 (agonist), fixed and stained with propidium iodide for DNA content analysis. The subG1 population was quantified and used as a measure of cell death. Data are from 4 independent determinations. FIG. 37B is an image of a Western blot of caspase 3 (Asp175) cleavage. IPAG induced apoptotic cell death occurred at the 48 hour treatment time point. FIG. 37C is a graph illustrating DA-MB-468 cells treated for 24 hours with a combination of IPAG (10 μM) and autophagy inhibitor 3-methyladenine (3-MA, 5 mM). Cell death was measured by trypan blue exclusion. […] For FIGS. 37A-37C, statistical significance was determined by two-way ANOVA followed by Bonferroni post-test, ***P<0.001.
In general terms: Flow cytometry measures light scatter and fluorescence of single cells or particles in a stream.

Test [4] has as its system MCF-7, T47D, DU145, PC3, HepG2 and Panc1 cells. Briefly: LC3BII immunoblot in a range of tumor cell lines. The conditions noted are these: 10 μM, 24 hours. In kind it is cell-based, human. How it is done:
FIG. 36, comprising FIGS. 36A-36C, illustrates Sigma1 antagonist associated autophagy. FIG. 36A, comprises representative images of translocation of GFP-tagged LC3 (LC3-GFP) into autophagosomes in MDA-MB-468 (MDA468) breast adenocarcinoma cells. Only antagonist-treated MDA-MB-468 cells presented LC3-GFP translocation to autophagosomes: […]. […] The images are representative of at least 80 fields for each treatment condition. FIG. 36B is an image of an immunoblot illustrating the finding that formation of GFP-LC3II the formation of GFP-LC3 positive punctae, an indicator of autophagosome formation. Protein extracts from MDA-MB-468 cells stably transfected with and expressing GFP-LC3, treated for 24 hours with 10 μM of the indicated Sigma1 ligand. FIG. 36C comprises images of immunoblots illustrating that increased levels of the microtubule associated protein light chain 3BII isoform (LC3BII) is another broadly used indicator of activated autophagy. […] Legend: MCF-7 (breast adenocarcinoma), T47D (breast adenocarcinoma), DU145 (prostate adenocarcinoma), PC3 (prostate adenocarcinoma), HepG2 (hepatocellular carcinoma), and Panc1 (pancreatic adenocarcinoma).
In general terms: In western blotting, separated proteins are transferred to a membrane and probed.

Test [5] concerns MDA-MB-468 cells. The test is described as follows: Alamar blue assay of bortezomib potentiation. The class given is cell-based, human. The conditions noted are these: 10 μM IPAG with 0.01 μM bortezomib, 20 hours. How it is done: In vitro cell proliferation and cell death were quantified by Alamar blue reduction. To evaluate potentiation of proteasome inhibitor (bortezomib)-induced cell death by IPAG, MDA-MB-468 cells were treated for 20 hours with a 10 μM IPAG or 0.01 μM bortezomib alone or both drugs combined. Cell death was confirmed by trypan blue exclusion assay (data not shown). Data are representative of an experiment performed in triplicate.
(In general: Resazurin is reduced to fluorescent resorufin, in cell work by metabolically active cells.)

Test [6] deals with Sigma1 (Homo sapiens, UniProt Q99720). The conditions noted are these: read-out: Ki, affinity for the Sigma1; cited from earlier work.
Sequence of Sigma1 (Q99720 whole entry): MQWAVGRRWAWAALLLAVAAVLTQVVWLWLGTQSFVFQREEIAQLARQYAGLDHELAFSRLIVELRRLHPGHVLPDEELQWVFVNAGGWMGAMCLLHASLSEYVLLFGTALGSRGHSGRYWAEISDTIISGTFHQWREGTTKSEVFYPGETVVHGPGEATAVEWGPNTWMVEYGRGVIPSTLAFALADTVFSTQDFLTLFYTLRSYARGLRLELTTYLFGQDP

Like-named read-outs stand apart in the source and are kept apart here. Where only a bound is given, the exact number is not on record here.

Broadly, the Ki is the dissociation constant of the complex between target and ligand, obtained from inhibition or displacement. Regarding `N=C(Nc1ccc(I)cc1)NC1C2CC3CC(C2)CC1C3` (stereo not shown) [IPAG, 1-(4-iodophenyl)-3-(2-adamantyl)guanidine], the “activation of UPR markers at a dose that does not produce autophagosomes” value in test [1] (1 μM, 24 hours) is given as “salient activation of at least seven markers of UPR”. For the same compound, the EC50 in test [1] (24 hours, read-out: EC50 for phosphorylation of JNK (Thr183/Tyr185)) was found to be 1700 nM; in test [1] (Homo sapiens, MDA-MB-468, 24 h, read-out: EC50 for induction of ATF4), 500 nM; in test [1] (Homo sapiens, MDA-MB-468, 24 h, read-out: EC50 for induction of IRE1α) it was 900 nM; in test [1] (Homo sapiens, MDA-MB-468, 24 h, read-out: EC50 for phosphorylation of JNK (Thr183/Tyr185)), 1600 nM; in test [1] (Homo sapiens, MDA-MB-468, 24 h, read-out: EC50 for phosphorylation of eIF2α (Ser51)), 2300 nM; in test [1] (Homo sapiens, MDA-MB-468, 24 h, read-out: EC50 for phosphorylation of p38MAPK (Thr180/Tyr182)), 500 nM. In test [1] (Homo sapiens, MDA-MB-468, 24 hours, read-out: EC50 for induction of GRP78/BiP), the EC50 worked out at 1400 nM. In addition, the “dead cells per well” value in test [2] (10 μM, 24 hours, with 3-MA (5 mM) or siRNA knockdown of Beclin1) was “over 33%”; in test [2] (24 hours, combined treatment with IPAG and 3-MA), 24±5%; in test [2] (knockdown of ATF4), 30±9%. For the same compound, the “proportion of dead cells (apoptotic cell death)” value in test [2] (10 μM, 48 hours of continuous treatment) was 30±2%. Further, the “proportion of dead cells” value is listed as 47±8% in test [2] (24 hours, IRE1α knockdown); 9±4% in test [2] (24 hours, control siRNA transfected cells); above 75% in test [2] (by 72 hours). In addition, in test [3], the “subG1 (dead, apoptotic) cells” value is 31.7%. Besides, the LC3BII levels result in test [4] was “salient induction of LC3BII levels”. Besides, in test [5], the “potentiation of bortezomib-induced cell death” value is “potentiates bortezomib-induced adenocarcinoma cell death”. The Ki in test [6] was 5 ± 2 nM.

These data come from patent US9388126B2, “Sigma receptor ligands and methods of modulating cellular protein homeostasis using same” (Drexel University, priority 2012, dated 2016).
